± gives the expanded uncertainty stated by the source.
assay: xn = mol fraction of the nth substance listed; details: 303.15 K; 101.3 kPa; Liquid; Concentric cylinders viscometry; x1 = 0.5

SMILES | viscosity
c1nc[nH]n1 [1H-1,2,4-triazole] + CCCC[P+](CCCC)(CCCC)CCCC.[Cl-] | 67.23 ± 2 mPa·s
c1nnn[nH]1 [1H-tetrazole] + CCCC[N+](CCCC)(CCCC)CCCC.[Br-] | 279.15 ± 15 mPa·s
c1nnn[nH]1 [1H-tetrazole] + CCCC[N+](CCCC)(CCCC)CCCC.[Cl-] | 87.88 ± 2.8 mPa·s
c1nnn[nH]1 [1H-tetrazole] + CCCC[P+](CCCC)(CCCC)CCCC.[Br-] | 68.26 ± 2.1 mPa·s
c1nnn[nH]1 [1H-tetrazole] + CCCC[P+](CCCC)(CCCC)CCCC.[Cl-] | 40.22 ± 1.5 mPa·s

same assay, conditions: 303.15 K; 101.3 kPa; Liquid; Concentric cylinders viscometry; x2 = 0.5

viscosity | SMILES
52.34 ± 1.6 mPa·s | CCCC[P+](CCCC)(CCCC)CCCC.[Cl-] [tetrabutylphosphonium chloride] + c1c[nH]cn1
